ChEMBL document CHEMBL3046319, “PCR-RFLP detection of the E198A mutation conferring resistance to benzimidazoles in field isolates of Monilinia laxa from Greece” (Crop Prot, 2012)

Key:
Type in all cases: functional
[1] = test system: Monilinia laxa; assay: Fungicidal activity against Monilinia laxa isolate MLX5 assessed as mycelial growth at 1 ug/ml at 25 degC after 4 days
[2] = test system: Monilinia laxa; assay: Fungicidal activity against Monilinia laxa isolate MLG1 assessed as mycelial growth at 1 ug/ml at 25 degC after 4 days
[3] = test system: Monilinia laxa; assay: Fungicidal activity against Monilinia laxa isolate MLBO5 assessed as mycelial growth at 1 ug/ml at 25 degC after 4 days
[4] = test system: Monilinia laxa; assay: Fungicidal activity against Monilinia laxa isolate MLBO2 assessed as mycelial growth at 1 ug/ml at 25 degC after 4 days
[5] = test system: Monilinia laxa; assay: Fungicidal activity against Monilinia laxa isolate MLC2 assessed as mycelial growth at 1 ug/ml at 25 degC after 4 days
[6] = test system: Monilinia laxa; assay: Fungicidal activity against Monilinia laxa isolate MLP4 assessed as mycelial growth at 1 ug/ml at 25 degC after 4 days
[7] = test system: Monilinia laxa; assay: Fungicidal activity against Monilinia laxa isolate MLX1 assessed as mycelial growth at 1 ug/ml at 25 degC after 4 days
[8] = test system: Monilinia laxa; assay: Fungicidal activity against Monilinia laxa isolate MLK12 assessed as mycelial growth at 1 ug/ml at 25 degC after 4 days
[9] = test system: Monilinia laxa; assay: Fungicidal activity against Monilinia laxa isolate MLA1 assessed as mycelial growth at 1 ug/ml at 25 degC after 4 days
[10] = test system: Monilinia laxa; assay: Fungicidal activity against Monilinia laxa isolate MLK1 assessed as mycelial growth at 1 ug/ml at 25 degC after 4 days
[11] = test system: Monilinia laxa; assay: Fungicidal activity against Monilinia laxa isolate MLP2 assessed as mycelial growth at 1 ug/ml at 25 degC after 4 days
[12] = test system: Monilinia laxa; assay: Fungicidal activity against Monilinia laxa isolate MLP4 assessed as mycelial growth at 0.5 ug/ml at 25 degC after 4 days
[13] = test system: Monilinia laxa; assay: Fungicidal activity against Monilinia laxa isolate MLA1 assessed as mycelial growth at 0.5 ug/ml at 25 degC after 4 days
[14] = test system: Monilinia laxa; assay: Fungicidal activity against Monilinia laxa isolate MLBO2 assessed as mycelial growth at 0.5 ug/ml at 25 degC after 4 days
[15] = test system: Monilinia laxa; assay: Fungicidal activity against Monilinia laxa isolate MLBO5 assessed as mycelial growth at 0.5 ug/ml at 25 degC after 4 days
[16] = test system: Monilinia laxa; assay: Fungicidal activity against Monilinia laxa isolate MLK1 assessed as mycelial growth at 0.5 ug/ml at 25 degC after 4 days
[17] = test system: Monilinia laxa; assay: Fungicidal activity against Monilinia laxa isolate MLC2 assessed as mycelial growth at 0.5 ug/ml at 25 degC after 4 days
[18] = test system: Monilinia laxa; assay: Fungicidal activity against Monilinia laxa isolate MLK12 assessed as mycelial growth at 0.5 ug/ml at 25 degC after 4 days
[19] = test system: Monilinia laxa; assay: Fungicidal activity against Monilinia laxa isolate MLX1 assessed as mycelial growth at 0.5 ug/ml at 25 degC after 4 days
[20] = test system: Monilinia laxa; assay: Fungicidal activity against Monilinia laxa isolate MLG1 assessed as mycelial growth at 0.5 ug/ml at 25 degC after 4 days
[21] = test system: Monilinia laxa; assay: Fungicidal activity against Monilinia laxa isolate MLX5 assessed as mycelial growth at 0.5 ug/ml at 25 degC after 4 days
[22] = test system: Monilinia laxa; assay: Fungicidal activity against Monilinia laxa isolate MLP2 assessed as mycelial growth at 0.5 ug/ml at 25 degC after 4 days
[23] = test system: Monilinia laxa; assay: Fungicidal activity against Monilinia laxa isolate MLA1 assessed as mycelial growth at 0.1 ug/ml at 25 degC after 4 days
[24] = test system: Monilinia laxa; assay: Fungicidal activity against Monilinia laxa isolate MLX1 assessed as mycelial growth at 0.1 ug/ml at 25 degC after 4 days
[25] = test system: Monilinia laxa; assay: Fungicidal activity against Monilinia laxa isolate MLX5 assessed as mycelial growth at 0.1 ug/ml at 25 degC after 4 days
[26] = test system: Monilinia laxa; assay: Fungicidal activity against Monilinia laxa isolate MLBO5 assessed as mycelial growth at 0.1 ug/ml at 25 degC after 4 days
[27] = test system: Monilinia laxa; assay: Fungicidal activity against Monilinia laxa isolate MLG1 assessed as mycelial growth at 0.1 ug/ml at 25 degC after 4 days
[28] = test system: Monilinia laxa; assay: Fungicidal activity against Monilinia laxa isolate MLK12 assessed as mycelial growth at 0.1 ug/ml at 25 degC after 4 days
[29] = test system: Monilinia laxa; assay: Fungicidal activity against Monilinia laxa isolate MLP4 assessed as mycelial growth at 0.1 ug/ml at 25 degC after 4 days
[30] = test system: Monilinia laxa; assay: Fungicidal activity against Monilinia laxa isolate MLC2 assessed as mycelial growth at 0.1 ug/ml at 25 degC after 4 days
[31] = test system: Monilinia laxa; assay: Fungicidal activity against Monilinia laxa isolate MLBO2 assessed as mycelial growth at 0.1 ug/ml at 25 degC after 4 days
[32] = test system: Monilinia laxa; assay: Fungicidal activity against Monilinia laxa isolate MLK1 assessed as mycelial growth at 0.1 ug/ml at 25 degC after 4 days
[33] = test system: Monilinia laxa; assay: Fungicidal activity against Monilinia laxa isolate MLP2 assessed as mycelial growth at 0.1 ug/ml at 25 degC after 4 days
[34] = test system: Monilinia laxa; assay: Fungicidal activity against Monilinia laxa isolate MLX1 assessed as mycelial growth at 0.05 ug/ml at 25 degC after 4 days
[35] = test system: Monilinia laxa; assay: Fungicidal activity against Monilinia laxa isolate MLA1 assessed as mycelial growth at 0.05 ug/ml at 25 degC after 4 days
[36] = test system: Monilinia laxa; assay: Fungicidal activity against Monilinia laxa isolate MLC2 assessed as mycelial growth at 0.05 ug/ml at 25 degC after 4 days
[37] = test system: Monilinia laxa; assay: Fungicidal activity against Monilinia laxa isolate MLK12 assessed as mycelial growth at 0.05 ug/ml at 25 degC after 4 days
[38] = test system: Monilinia laxa; assay: Fungicidal activity against Monilinia laxa isolate MLBO2 assessed as mycelial growth at 0.05 ug/ml at 25 degC after 4 days
[39] = test system: Monilinia laxa; assay: Fungicidal activity against Monilinia laxa isolate MLBO5 assessed as mycelial growth at 0.05 ug/ml at 25 degC after 4 days
[40] = test system: Monilinia laxa; assay: Fungicidal activity against Monilinia laxa isolate MLK1 assessed as mycelial growth at 0.05 ug/ml at 25 degC after 4 days
[41] = test system: Monilinia laxa; assay: Fungicidal activity against Monilinia laxa isolate MLX5 assessed as mycelial growth at 0.05 ug/ml at 25 degC after 4 days
[42] = test system: Monilinia laxa; assay: Fungicidal activity against Monilinia laxa isolate MLP2 assessed as mycelial growth at 0.05 ug/ml at 25 degC after 4 days
[43] = test system: Monilinia laxa; assay: Fungicidal activity against Monilinia laxa isolate MLP4 assessed as mycelial growth at 0.05 ug/ml at 25 degC after 4 days
[44] = test system: Monilinia laxa; assay: Fungicidal activity against Monilinia laxa isolate MLG1 assessed as mycelial growth at 0.05 ug/ml at 25 degC after 4 days
[45] = test system: Monilinia laxa; assay: Fungicidal activity against Monilinia laxa isolate MLX5 assessed as mycelial growth at 5 ug/ml at 25 degC after 4 days
[46] = test system: Monilinia laxa; assay: Fungicidal activity against Monilinia laxa isolate MLG1 assessed as mycelial growth at 5 ug/ml at 25 degC after 4 days
[47] = test system: Monilinia laxa; assay: Fungicidal activity against Monilinia laxa isolate MLBO5 assessed as mycelial growth at 5 ug/ml at 25 degC after 4 days
[48] = test system: Monilinia laxa; assay: Fungicidal activity against Monilinia laxa isolate MLP2 assessed as mycelial growth at 5 ug/ml at 25 degC after 4 days
[49] = test system: Monilinia laxa; assay: Fungicidal activity against Monilinia laxa isolate MLBO2 assessed as mycelial growth at 5 ug/ml at 25 degC after 4 days
[50] = test system: Monilinia laxa; assay: Fungicidal activity against Monilinia laxa isolate MLX1 assessed as mycelial growth at 5 ug/ml at 25 degC after 4 days
[51] = test system: Monilinia laxa; assay: Fungicidal activity against Monilinia laxa isolate MLA1 assessed as mycelial growth at 5 ug/ml at 25 degC after 4 days
[52] = test system: Monilinia laxa; assay: Fungicidal activity against Monilinia laxa isolate MLP4 assessed as mycelial growth at 5 ug/ml at 25 degC after 4 days
[53] = test system: Monilinia laxa; assay: Fungicidal activity against Monilinia laxa isolate MLK1 assessed as mycelial growth at 5 ug/ml at 25 degC after 4 days
[54] = test system: Monilinia laxa; assay: Fungicidal activity against Monilinia laxa isolate MLK12 assessed as mycelial growth at 5 ug/ml at 25 degC after 4 days
[55] = test system: Monilinia laxa; assay: Fungicidal activity against Monilinia laxa isolate MLC2 assessed as mycelial growth at 5 ug/ml at 25 degC after 4 days

Compound	Activity [12] [%]	Activity [13] [%]	Activity [14] [%]	Activity [15] [%]	Activity [16] [%]	Activity [17] [%]	Activity [18] [%]	Activity [19] [%]	Activity [20] [%]	Activity [21] [%]	Activity [22] [%]	Activity [34] [%]	Activity [35] [%]	Activity [36] [%]	Activity [37] [%]	Activity [38] [%]	Activity [39] [%]	Activity [40] [%]	Activity [41] [%]	Activity [42] [%]	further results
CCCCNC(=O)n1c(NC(=O)OC)nc2ccccc21 [BENOMYL]																					Activity [1]: 0%; Activity [2]: 0%; Activity [3]: 0%; Activity [4]: 0%; Activity [5]: 80.01%; Activity [6]: 100%; Activity [7]: 100%; Activity [8]: 100%; Activity [9]: 0%; Activity [10]: 100%; Activity [11]: 0%
O=C(Nc1ccccc1-c1ccc(Cl)cc1)c1cccnc1Cl [BOSCALID]	0	42.73	36.67	0	62.05	0	45.05	60.03	0	0	66.82										
CC1(C(=O)Nc2ccc(O)c(Cl)c2Cl)CCCCC1 [FENHEXAMID]																					Activity [23]: 23.05%; Activity [24]: 21.82%; Activity [25]: 50.34%; Activity [26]: 21.05%; Activity [27]: 0%; Activity [28]: 60.05%; Activity [29]: 45.83%; Activity [30]: 50.35%; Activity [31]: 10.03%; Activity [32]: 17.65%; Activity [33]: 25%
N#Cc1c[nH]cc1-c1cccc2c1OC(F)(F)O2 [FLUDIOXONIL]												21.09	16.22	18.3	12.78	17.99	11.01	13.66	17.5	16.05	Activity [43]: 13.89%; Activity [44]: 15.05%
CC(C)NC(=O)N1CC(=O)N(c2cc(Cl)cc(Cl)c2)C1=O [IPRODIONE]	45.23	30.22	40.44	0	57.14	46.61	45.46	21.88	35.42	54.55	28.12										
COC(=O)N(OC)c1ccccc1COc1ccn(-c2ccc(Cl)cc2)n1 [PYRACLOSTROBIN]												29.41	36.82	34.48	37.5	40.65	49.62	50.05	51.15	50	Activity [43]: 47.32%; Activity [44]: 25%
CC(C)(C)C(O)(CCc1ccc(Cl)cc1)Cn1cncn1 (centres undefined) [TEBUCONAZOLE]												30.77	47.41	39.39	30	48.34	49.65	22.24	65.45	34.29	Activity [43]: 35.71%; Activity [44]: 25.3%
COC(=O)NC(=S)Nc1ccccc1NC(=S)NC(=O)OC [THIOPHANATE METHYL]																					Activity [45]: 0%; Activity [46]: 0%; Activity [47]: 0%; Activity [48]: 0%; Activity [49]: 0%; Activity [50]: 100%; Activity [51]: 0%; Activity [52]: 93.75%; Activity [53]: 100%; Activity [54]: 100%; Activity [55]: 95.25%
CCC(C)(NC(=O)c1cc(Cl)c(C)c(Cl)c1)C(=O)CCl (centres undefined) [ZOXAMIDE]	0	48.95	43.33	44	0	0	0	0	36.05	39.09	59.09										
